Measurements: publication PMC7587356, “High-Throughput Screening for Inhibitors of the SARS-CoV-2 Protease Using a FRET-Biosensor” (Molecules, 2020)
Structures can show the parent of a compound that is named as a salt. Where two headings read alike, the source gives them in different places.

Molecular target: SARS-CoV-2 3CLpro (Severe acute respiratory syndrome coronavirus 2, UniProt P0DTD1)
Experiment: biochemical
Format: biochemical
Design: Replicate_1 / Replicate_2 / mean / mean (LOPAC_screen_w_protease): unit not given here
Conditions: for inhibition at 5 µM: 4 h
[1] = LOPAC1280 primary screen with protease, 5 µM compound, replicate 1, read-out: Replicate_1 (LOPAC_screen_w_protease)
[2] = LOPAC1280 primary screen with protease, 5 µM compound, replicate 2, read-out: Replicate_2 (LOPAC_screen_w_protease)
[3] = LOPAC1280 primary screen with protease, 5 µM compound, mean of the two replicates
[4] = LOPAC1280 primary screen with protease, 5 µM compound, replicate 1
[5] = LOPAC1280 primary screen with protease, 5 µM compound, replicate 2
[6] = sheet LOPAC_screen_w_protease, primary screen at 5 µM, mean of two replicates
[7] = sheet LOPAC_screen_w_protease, primary screen at 5 µM, replicate 1
[8] = sheet LOPAC_screen_w_protease, primary screen at 5 µM, replicate 2
[9] = sheet LOPAC_screen_w_protease, LOPAC1280 at 5 µM, mean of two replicates
[10] = sheet LOPAC_screen_w_protease, LOPAC1280 at 5 µM, replicate 1
[11] = sheet LOPAC_screen_w_protease, LOPAC1280 at 5 µM, replicate 2
[12] = sheet LOPAC_screen_w_protease, LOPAC1280 primary screen at 5 µM, with protease, replicate 1
[13] = sheet LOPAC_screen_w_protease, LOPAC1280 primary screen at 5 µM, with protease, replicate 2
[14] = sheet LOPAC_screen_w_protease, LOPAC1280 primary screen at 5 µM, with protease, mean of the two replicates
[15] = sheet LOPAC_screen_w_protease, primary screen of LOPAC1280 at 5 µM with protease, mean of the two replicates
[16] = sheet LOPAC_screen_w_protease, primary screen of LOPAC1280 at 5 µM with protease, replicate 1
[17] = sheet LOPAC_screen_w_protease, primary screen of LOPAC1280 at 5 µM with protease, replicate 2
[18] = read-out: Replicate_1 (LOPAC screen with protease)
[19] = read-out: Replicate_2 (LOPAC screen with protease)
[20] = read-out: mean (LOPAC screen with protease)
[21] = sheet LOPAC_screen_w_protease, LOPAC1280 primary screen with protease, 5 µM compound, mean of the two replicates
[22] = sheet LOPAC_screen_w_protease, LOPAC1280 primary screen with protease, 5 µM compound, replicate 1
[23] = sheet LOPAC_screen_w_protease, LOPAC1280 primary screen with protease, 5 µM compound, replicate 2
[24] = sheet LOPAC_screen_w_protease, primary screen with protease, mean of two replicates
[25] = sheet LOPAC_screen_w_protease, primary screen with protease, replicate 1
[26] = sheet LOPAC_screen_w_protease, primary screen with protease, replicate 2

## NC(=O)c1cccc(N)c1 [3-aminobenzamide]
Sheet LOPAC_screen_w_protease, LOPAC1280 at 5 µM, mean of two replicates, read-out: mean
  inhibition at 5 µM: 1.28%
Sheet LOPAC_screen_w_protease, LOPAC1280 at 5 µM, replicate 1, read-out: Replicate_1
  inhibition at 5 µM: 1.05%
Sheet LOPAC_screen_w_protease, LOPAC1280 at 5 µM, replicate 2, read-out: Replicate_2
  inhibition at 5 µM: 1.51%

## NCCS(=O)O [Hypotaurine]
[1]
  inhibition at 5 µM: 4.13%
[2]
  inhibition at 5 µM: -0.407%
[3]
  mean (LOPAC_screen_w_protease): 1.861

## CC(=O)OCC(=O)[C@@]1(O)CC[C@H]2[C@@H]3CCC4=CC(=O)CC[C@]4(C)[C@H]3C(=O)C[C@@]21C [Cortisone 21-acetate]
[1]
  inhibition at 5 µM: 2.66%
[2]
  inhibition at 5 µM: 0.881%
[3]
  mean (LOPAC_screen_w_protease): 1.771

## CCCCOc1cc(CC2CNC(=O)N2)ccc1OC (stereo not drawn) [Ro 20-1724]
[3]
  mean (LOPAC_screen_w_protease): 1.901
[4]
  Replicate_1 (LOPAC_screen_w_protease): 0.9131
[5]
  Replicate_2 (LOPAC_screen_w_protease): 2.888

## Br.Cc1cccc(C2CN(C)CCc3c2cc(O)c(O)c3Cl)c1 (stereo not drawn) [SKF 83959 hydrobromide]
[6]
  mean (LOPAC screen with protease): 8.7281
[7]
  Replicate_1 (LOPAC screen with protease): 9.112
[8]
  Replicate_2 (LOPAC screen with protease): 8.344

## O=C(O)[C@H]1C[C@H](C(=O)O)N1 (relative stereo) [trans-Azetidine-2,4-dicarboxylic acid]
[3]
  mean (LOPAC_screen_w_protease): 2.097
[4]
  Replicate_1 (LOPAC_screen_w_protease): 1.338
[5]
  Replicate_2 (LOPAC_screen_w_protease): 2.855

## CC(C)(C)NCC(O)c1cc(O)cc(O)c1.CC(C)(C)NCC(O)c1cc(O)cc(O)c1.O=S(=O)(O)O (stereo not drawn) [Terbutaline hemisulfate]
[9]
  mean: 1.161
[10]
  Replicate_1: -0.3816
[11]
  Replicate_2: 2.703

## C[N+](C)(C)CCOP(=O)([O-])OP(=O)([O-])OC[C@H]1O[C@@H](n2ccc(N)nc2=O)[C@H](O)[C@@H]1O.[Na+] [Citicoline sodium]
[3]
  mean (LOPAC_screen_w_protease): 2.039
[4]
  Replicate_1 (LOPAC_screen_w_protease): 0.6867
[5]
  Replicate_2 (LOPAC_screen_w_protease): 3.392

## CC1=C(CC(=O)O)c2cc(F)ccc2/C1=C\c1ccc(S(C)(=O)=O)cc1 [Sulindac sulfone]
Sheet LOPAC_screen_w_protease, LOPAC1280 primary screen at 5 µM, with protease, mean of two replicates
  mean: -1.258
[12]
  Replicate_1: 0.6759
[13]
  Replicate_2: -3.192

## O=c1cc(-c2ccc(O)cc2)oc2cc(O)cc(O)c12 [Apigenin]
read-out: Replicate_1
  inhibition at 5 µM: 0.663%
read-out: Replicate_2
  inhibition at 5 µM: -0.402%
read-out: mean
  inhibition at 5 µM: 0.131%

## Cl.O=C(O)C1=CCCN(CCON=C(c2ccccc2)c2ccccc2)C1 [NO-711 hydrochloride]
  Replicate_1: 1.057
  Replicate_2: -0.5134
  mean: 0.272

## C[C@H](N)CN1CCc2ccc(Br)cc21.C[C@H](N)CN1CCc2ccc(Br)cc21.O=C(O)/C=C/C(=O)O [VER-3323 hemifumarate salt]
[14]
  mean: 0.8173
[12]
  Replicate_1: 0.78
[13]
  Replicate_2: 0.8545

## CNCCNS(=O)(=O)c1cccc2cnccc12.Cl.Cl [H-8 dihydrochloride]
[6]
  mean (LOPAC screen with protease): 10.4369
[7]
  Replicate_1 (LOPAC screen with protease): 9.7701
[8]
  Replicate_2 (LOPAC screen with protease): 11.1038

## N#CCCN.N#CCCN.O=C(O)/C=C/C(=O)O [3-Aminopropionitrile fumarate]
[9]
  mean: 0.9446
[10]
  Replicate_1: 1.551
[11]
  Replicate_2: 0.3384

## CCCCN1CCC(n2c(=O)[nH]c3ccccc32)CC1.O=C(O)C(=O)O [NS 521 oxalate]
[15]
  mean: 3.504
[16]
  Replicate_1: 2.6467
[17]
  Replicate_2: 4.361

## CCN(CC)C(=O)c1ccc(O)c(OC)c1 [Vanillic acid diethylamide]
[9]
  mean: 0.9703
[10]
  Replicate_1: 1.198
[11]
  Replicate_2: 0.7424

## Cn1cc(C2=C(c3ccc(Cl)cc3Cl)C(=O)NC2=O)c2ccccc21 [SB 216763]
Sheet LOPAC_screen_w_protease, primary screen at 5 µM, mean of two replicates, read-out: mean (LOPAC screen with protease)
  inhibition at 5 µM: 6.45%
Sheet LOPAC_screen_w_protease, primary screen at 5 µM, replicate 1, read-out: Replicate_1 (LOPAC screen with protease)
  inhibition at 5 µM: 5.91%
Sheet LOPAC_screen_w_protease, primary screen at 5 µM, replicate 2, read-out: Replicate_2 (LOPAC screen with protease)
  inhibition at 5 µM: 6.98%

## Cc1cc(O)c2c(c1)C(=O)c1cc(O)cc(O)c1C2=O [Emodin]
[18]
  inhibition at 5 µM: 10.9%
[19]
  inhibition at 5 µM: 5.72%
[20]
  inhibition at 5 µM: 8.32%

## Cl.NCCCCC(=O)O [5-Aminovaleric acid hydrochloride]
Sheet LOPAC_screen_w_protease, primary screen with protease, 5 µM, mean of two replicates
  mean: 0.3592
Sheet LOPAC_screen_w_protease, primary screen with protease, 5 µM, replicate 1
  Replicate_1: 0.7789
Sheet LOPAC_screen_w_protease, primary screen with protease, 5 µM, replicate 2
  Replicate_2: -0.06046

## O=C(O)CN(CCOCCOCCN(CC(=O)O)CC(=O)O)CC(=O)O
  Replicate_1: 4.424
  Replicate_2: 0.4872
  mean: 2.456

## Cc1nnc2ccc(-c3cccc(C(F)(F)F)c3)nn12
[21]
  mean: 4.5531
[22]
  Replicate_1: 2.841
[23]
  Replicate_2: 6.265

## C[C@@]12C(=O)OC(=O)[C@]1(C)[C@H]1CC[C@@H]2O1 [Cantharidin]
read-out: Replicate_1
  inhibition at 5 µM: 1.95%
read-out: Replicate_2
  inhibition at 5 µM: 0.0268%
read-out: mean
  inhibition at 5 µM: 0.988%

## CCNC(=O)N1CCN(CCCC(c2ccc(F)cc2)c2ccc(F)cc2)CC1 [Amperozide hydrochloride]
Sheet LOPAC_screen_w_protease, primary screen with protease, 5 µM, mean of two replicates, read-out: mean
  inhibition at 5 µM: 0.1%
Sheet LOPAC_screen_w_protease, primary screen with protease, 5 µM, replicate 1, read-out: Replicate_1
  inhibition at 5 µM: 0.58%
Sheet LOPAC_screen_w_protease, primary screen with protease, 5 µM, replicate 2, read-out: Replicate_2
  inhibition at 5 µM: -0.38%

## Cc1nc2sccn2c(=O)c1CCN1CCC(=C(c2ccccc2)c2ccc(F)cc2)CC1 [Diacylglycerol kinase inhibitor I]
[15]
  mean: 3.623
[16]
  Replicate_1: 4.4123
[17]
  Replicate_2: 2.833

## CN(C)S(=O)(=O)c1ccc2c(c1)/C(=C/c1cc3c([nH]1)CCCC3)C(=O)N2 [SU 6656]
Sheet LOPAC_screen_w_protease, LOPAC1280 primary screen with protease, 5 µM compound, mean of the two replicates, read-out: mean
  inhibition at 5 µM: 4.85%
Sheet LOPAC_screen_w_protease, LOPAC1280 primary screen with protease, 5 µM compound, replicate 1, read-out: Replicate_1
  inhibition at 5 µM: 3.58%
Sheet LOPAC_screen_w_protease, LOPAC1280 primary screen with protease, 5 µM compound, replicate 2, read-out: Replicate_2
  inhibition at 5 µM: 6.11%

## NC(CO)(CO)CO.O=C(c1ccccc1)c1ccc2n1CCC2C(=O)O (stereo not drawn) [Ketorolac tris salt]
LOPAC1280 primary screen with protease, 5 µM compound, mean of two replicates
  mean (LOPAC_screen_w_protease): 1.7087
[4]
  Replicate_1 (LOPAC_screen_w_protease): 1.974
[5]
  Replicate_2 (LOPAC_screen_w_protease): 1.443

## Nn1nnc2ccccc21 [1-Aminobenzotriazole]
[9]
  mean: 1.253
[10]
  Replicate_1: 1.647
[11]
  Replicate_2: 0.8595

## Phenylbenzene-omega-phosphono-alpha-amino acid
[14]
  mean: 0.7227
[12]
  Replicate_1: 0.6047
[13]
  Replicate_2: 0.8406

## Clc1cnc(Oc2ccc(Oc3ncc(Cl)cc3Cl)cc2)c(Cl)c1 [TCPOBOP]
[24]
  mean: 2.32
[25]
  Replicate_1: 5.456
[26]
  Replicate_2: -0.8151

## CCn1c(=O)c2nc(-c3ccccc3)[nH]c2n(CC)c1=O [1,3-Diethyl-8-phenylxanthine]
Sheet LOPAC_screen_w_protease, primary screen of LOPAC1280 at 5 µM with protease, mean of the two replicates, read-out: mean
  inhibition at 5 µM: 3.47%
Sheet LOPAC_screen_w_protease, primary screen of LOPAC1280 at 5 µM with protease, replicate 1, read-out: Replicate_1
  inhibition at 5 µM: 3.04%
Sheet LOPAC_screen_w_protease, primary screen of LOPAC1280 at 5 µM with protease, replicate 2, read-out: Replicate_2
  inhibition at 5 µM: 3.9%

## COC(=O)c1c(-c2cc(OC)c(OC)c(OC)c2)c2ccnc(OCc3ncccn3)c2c(=O)n1Cc1ccnc(C)c1 [T-0156]
[14]
  mean: 0.7124
[12]
  Replicate_1: 1.2
[13]
  Replicate_2: 0.2248

## O=C(CCc1ccc(O)cc1)c1c(O)cc(O)cc1O [Phloretin]
[18]
  inhibition at 5 µM: 8.32%
[19]
  inhibition at 5 µM: 5.55%
[20]
  inhibition at 5 µM: 6.94%

## CN(C)CCCCSC(=N)N.Cl.Cl [SKF 91488 dihydrochloride]
[6]
  mean (LOPAC screen with protease): 12.1431
[7]
  Replicate_1 (LOPAC screen with protease): 13.4504
[8]
  Replicate_2 (LOPAC screen with protease): 10.8358

## COc1cc(C(O)CN)ccc1O.Cl (racemic) [(±)-Normetanephrine hydrochloride]
[21]
  mean: 4.101
[22]
  Replicate_1: 4.337
[23]
  Replicate_2: 3.864

## CC(/C=C/c1cccc(Oc2ccc(F)cc2)c1)N(O)C(N)=O (stereo not drawn) [BWB70C]
[24]
  mean: 2.212
[25]
  Replicate_1: 2.534
[26]
  Replicate_2: 1.889

## Nc1ncnc2c1c(-c1ccc(Oc3ccccc3)cc1)cn2C1CCCC1
[14]
  mean: 0.6123
[12]
  Replicate_1: 0.3054
[13]
  Replicate_2: 0.9192
